Values of other authors as cited in US6376550B1, “Pharmaceutical compositions containing tramadol for migraine” (ASTA Medica AG, priority 1999, dated 2002).

Conditions: in vivo

SMILES: COc1cccc(C2(O)CCCCC2CN(C)C)c1 (stereo not shown) [tramadol, 2-[(dimethylamino)methyl]-1-(3-methoxyphenyl)cyclohexanol]
- terminal elimination half life: 5 to 6 h
